In experiment [1] the test system is Influenza, Ann Arbor virus. Nature of the experiment: Influenza Ann Arbor in mice, subcutaneous; late read day 9 (Table 11), 7 (Tables 12, 14), 5 (Table 13). The format is in vivo, mouse.
Experiment [2] deals with Influenza, Ann Arbor virus. Nature of the experiment: Influenza Ann Arbor in mice, oral; schedule by table; late read day 5 (Tables 15, 25, 29, 30), 6 (18, 20, 22, 23, 26, 27, 28, 54), 7 (14, 19, 21, 24, 53, 56), 8 (16, 17, 51), 9 (11, 55). The class given is in vivo, mouse.
For experiment [3], the system named is Influenza B Massachusetts virus. Nature of the experiment: Influenza B Mass. in mice, oral; late read day 5 (Table 39), 7 (Table 40), 11 (Tables 61, 65); control fraction 16/20 (Table 61), else 100%. The class given is in vivo, mouse. The procedure: A portion of a commercially available sample of amantadine was recrystallized from isopropanol. The activity of the material against Influenza B Mass. was tested for the sample as obtained, the recrystallized portion, and the mother liquor obtained from recrystallizing the portion.

A further experiment concerns Influenza PR 8 virus. Nature of the experiment: Influenza PR 8 in mice, oral; schedule by table; late read day 6 (Table 37), 7 (33, 36), 8 (32, 35, 47), 10 (38); control fraction 18/20 (Table 32), 19/20 (Table 35), else 100%. The format is in vivo, mouse.
The next experiment deals with viral infections. Nature of the experiment: Antiviral screening in animals, general statements. To be noted: mouse, in vivo.

Like-named read-outs stand apart in the source and are kept apart here.

In experiment [1] (subcutaneous, only at one dose level), `N=C(N)NN` [aminoguanidine] returned a survival of 50%. For the same compound, the “No. animals surviving after 7 days” value in experiment [1] (total dose 3 μg) is on record as 6; in experiment [1] (total dose .0003 μg) it was 8; in experiment [1] (total dose .003 μg), 8. Also, the Survivors in experiment [1] (total dose 3 μg) is 2; in experiment [1] (total dose 30 μg) it was 2; in experiment [1] (total dose .0003 μg) it was 5; in experiment [1] (total dose .003 μg) it was 0; in experiment [1] (total dose .03 μg) it was 1; in experiment [1] (total dose .3 μg), 1. Besides, the Survivors turned out to be 1 in experiment [2] (total dose 300 pg); 1 in experiment [2] (total dose 3 ng); 2 in experiment [2] (total dose 30 ng); 4 in experiment [2] (total dose 300 ng); 3 in experiment [2] (total dose 3 μg). Also, in experiment [2] (oral), the activity in words entry is “most active”. In experiment [2] (oral, high dose), this compound showed a treated animals survived of 50%. The “No. animals surviving after 5-7 days” value in experiment [2] (total dose 300 pg) is 6; in experiment [2] (total dose 3 μg) it was 8; in experiment [2] (total dose 30 μg), 8.
In the case of `NNC(=O)c1ccncc1` [Isoniazid, isoniazid, reference compound], the “No. animals surviving after 5 days (Table 61: 11 days)” value in experiment [3] (total dose .000005 μg (5 pg)) is reported as 3; in experiment [3] (total dose .00005 μg (50 pg)) it was 2; in experiment [3] (total dose .0005 μg (500 pg)) it was 3; in experiment [3] (total dose .005 μg (5 ng)) it was 5; in experiment [3] (total dose .05 μg (50 ng)), 3; in experiment [3] (total dose .5 μg (500 ng)), 3. The “No. animals surviving when 100% (Table 61: 16/20) of controls are dead” value turned out to be 0 in experiment [3] (total dose .000005 μg (5 pg)); 1 in experiment [3] (total dose .00005 μg (50 pg)); 2 in experiment [3] (total dose .0005 μg (500 pg)); 1 in experiment [3] (total dose .005 μg (5 ng)); 1 in experiment [3] (total dose .05 μg (50 ng)); 0 in experiment [3] (total dose .5 μg (500 ng)). In addition, the Survivors in experiment [3] (total dose .000005 μg (5 pg)), in experiment [3] (total dose .00005 μg (50 pg)), in experiment [3] (total dose .0005 μg (500 pg)), in experiment [3] (total dose .005 μg (5 ng)), in experiment [3] (total dose .05 μg (50 ng)) and in experiment [3] (total dose .5 μg (500 ng)) was 0 in each case. Further, the Survivors with Influenza PR 8 virus (total dose .0000005 μg) is on record as 0; in the experiment on Influenza PR 8 virus (total dose .000005 μg) it was 0; in the experiment on Influenza PR 8 virus (total dose .00005 μg) it was 0; with Influenza PR 8 virus (total dose .0005 μg), 0; in the experiment with Influenza PR 8 virus (total dose .005 μg), 1; with Influenza PR 8 virus (total dose .05 μg), 1. For the same compound, the Survivors in the experiment on Influenza PR 8 virus (total dose .5 μg), in the experiment on Herpes virus (total dose .0000005 μg) and with Herpes virus (total dose .05 μg) was 1 in each case. Besides, the “No. animals surviving after 6-10 days” value in the experiment on Influenza PR 8 virus (total dose 5 μg) was 5; in the experiment with Influenza PR 8 virus (total dose .0000005 μg), 1; in the experiment with Influenza PR 8 virus (total dose .00005 μg), 0; with Influenza PR 8 virus (total dose .0005 μg), 0; with Influenza PR 8 virus (total dose .005 μg), 1. The “No. animals surviving when 100% (or given fraction) of controls are dead” value in the experiment with Influenza PR 8 virus (total dose .0000005 μg) was determined as 0; with Influenza PR 8 virus (total dose .000005 μg), 1; in the experiment with Influenza PR 8 virus (total dose .00005 μg), 0; with Influenza PR 8 virus (total dose .0005 μg), 0; in the experiment on Influenza PR 8 virus (total dose .005 μg), 1; with Influenza PR 8 virus (total dose .05 μg) it was 0. In addition, the “No. animals surviving when 100% (or given fraction) of controls are dead” value in the experiment with Influenza PR 8 virus (total dose .5 μg), in the experiment with Herpes virus (total dose .0000005 μg), in the experiment on Herpes virus (total dose .005 μg) and with Herpes virus (total dose .05 μg) was 1 throughout. The activity in words entry in the experiment with viral infections was “active”. Besides, the “maximum protective effect, treated animals survived” value with viral infections came out at 30%. The “No. animals surviving after 6-9 days” value with Herpes virus (total dose .0000005 μg) and in the experiment on Herpes virus (total dose .05 μg) was 4 in each case.
With N-hydroxyphthalamide, the activity in words entry in the experiment with viral infections is given as “active”.

The values above are taken from US4027039A (priority 1975, dated 1977).
